In paper PMC3754872 (The Journal of Experimental Medicine, 2013):

Legend:
CXCR2 [1] = target: T1, CXCR2 (Mus musculus, UniProt P35343); assay: displacement of […]-IL-8 from CXCR2-expressing L1.[…] cells; format: binding
T1 sequence (P35343 1-359): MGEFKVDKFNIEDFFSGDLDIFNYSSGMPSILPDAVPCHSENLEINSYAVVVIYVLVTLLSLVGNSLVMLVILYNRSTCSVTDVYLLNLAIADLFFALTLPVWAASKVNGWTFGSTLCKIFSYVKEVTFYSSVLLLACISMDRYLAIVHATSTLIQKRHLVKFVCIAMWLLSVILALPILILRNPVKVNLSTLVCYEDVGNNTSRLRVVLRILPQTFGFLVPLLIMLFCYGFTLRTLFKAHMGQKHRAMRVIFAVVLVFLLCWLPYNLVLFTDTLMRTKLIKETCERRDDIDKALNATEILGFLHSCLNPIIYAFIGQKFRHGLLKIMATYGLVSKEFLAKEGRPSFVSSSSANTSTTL

CXCR2 [2] = target: T1, CXCR2; assay: inhibition of agonist-stimulated; format: biochemical

IC50 (CXCR2 [2]) | Structure (SMILES) | EC50 (CXCR2 [1])
 | CC(C)CCC(O)[C@@H](C)[C@H]1CC[C@H]2[C@@H]3CC=C4C[C@@H](O)CC[C@]4(C)[C@H]3CC[C@]12C (stereo partly drawn) [22R-HC] | 1320 ± 250 nM
16.6 ± 3.64 nM | O=C(Nc1ccc([N+](=O)[O-])cc1O)Nc1ccccc1Br [SB225002] | 
